From publication PMC9330653, “Targeting the Ubiquinol-Reduction (Qi) Site of the Mitochondrial Cytochrome bc1 Complex for the Development of Next Generation Quinolone Antimalarials” (Biology, 2022)
Values after ≈ are worked out from the molar mass of the structure shown. Where two headings read alike, the source gives them in different places.

Tests used:
bovine cytochrome bc1 = target: T1, bovine cytochrome bc1 (Bos taurus, UniProt P00157); assay: Bovine cytochrome bc1 activity assay; type: biochemical; conditions: triplicate
T1 construct: Crude mitochondria were isolated from fresh bovine hearts; from tissue; host or cells: bovine heart mitochondria
Description: Cytochrome bc1 was purified from mitochondria, as previously described. Crude mitochondria were isolated from fresh bovine hearts and solubilized with the addition of dodecyl-maltoside (DDM). The solubilized protein was loaded onto a 50 mL DEAE Sepharose CL6B (GE Healthcare, Uppsala, Sweden) column pre-equilibrated in and washed with three column volumes of 50 mM KPi pH 7.5, 250 mM NaCl, 0.5 mM EDTA, and 0.01% DDM. The bound protein was eluted along a linear gradient from 250 to 500 mM NaCl. Cytochrome bc1 fractions were pooled and concentrated in a centrifugal ultrafilter (MWCO. 100 kDa) and loaded onto a 120 mL Sephacryl S300 column (GE Healthcare, Uppsala, Sweden) equilibrated in and eluted at a flow rate of 0.5 mL/min with 20 mM KMOPS pH 7.2, 100 mM NaCl, 0.5 mM EDTA, 0.01% DDM. Cytochrome bc1 fractions were pooled and concentrated to 40 mg/mL. PEG fractionation with an increasing amount of PEG4000 was used to precipitate cytochrome bc1. […] The inhibitors were dissolved in DMSO at the concentration of 50 mM and 5 μM cytochrome bc1 was incubated with 50 μM inhibitor (10-fold molar excess) at 4 °C for 12 h.
The inhibitors were added to the assay without prior incubation. The reaction was initiated by the addition of 50 μM decylubiquinol (Sigma-Aldrich, St. Louis, MO, USA).

[1] = test system: Plasmodium falciparum 3D7; conditions: drug sensitive P. falciparum 3D7 whole cells; cited from earlier work
[2] = test system: Plasmodium falciparum FCR3A strain; parameters: method as in PMID 23234553; conditions: FCR3A strain used as atovaquone-resistant parasite (footnote †); read-out: IC50 (nM) (TM90C2B); cited from earlier work
[3] = target: PfNDH2 (P. falciparum mitochondrial type II NADH: ubiquinone oxidoreductase); conditions: cited from earlier work
[4] = target: T2, Pfbc1 (P. falciparum cytochrome bc1) (Plasmodium falciparum, UniProt Q02768); conditions: cited from earlier work
T2 sequence (Q02768 1-376): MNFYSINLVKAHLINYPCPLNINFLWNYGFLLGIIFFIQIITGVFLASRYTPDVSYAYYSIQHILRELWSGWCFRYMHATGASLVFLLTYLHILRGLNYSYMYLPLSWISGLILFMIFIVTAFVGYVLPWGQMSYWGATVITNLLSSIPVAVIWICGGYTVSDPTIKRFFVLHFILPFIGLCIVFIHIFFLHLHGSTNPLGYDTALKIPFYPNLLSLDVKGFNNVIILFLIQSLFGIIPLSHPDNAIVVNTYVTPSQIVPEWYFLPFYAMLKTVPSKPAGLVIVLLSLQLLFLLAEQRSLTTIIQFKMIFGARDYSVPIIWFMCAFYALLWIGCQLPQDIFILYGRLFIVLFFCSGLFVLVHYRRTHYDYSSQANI

[5] = test system: Plasmodium falciparum TM90C2B; conditions: atovaquone resistant parasite TM90C2B; cited from earlier work
[6] = parameters: method as in doi:10.1039/C5MD00062A; conditions: at pH 1; cited from earlier work
[7] = target: T2, Pfbc1 (P. falciparum cytochrome bc1); assay: Pf cytochrome bc1 enzyme inhibition; type: biochemical; conditions: at 100 nM; single point concentration only, full IC50 not available; measured in this work
Description: Table 1 Inhibition profiles of selected antimalarial compounds against whole cells of Plasmodium falciparum (Pf) (3D7 and TM90C2B strains) and individual mitochondrial enzymes. | column: IC50 (nM) (Pfbc1) *

[8] = single point concentration only, full IC50 not available

Which results are given for Cc1[nH]c(C)c(-c2ccc(Oc3ccc(OC(F)(F)F)cc3)cc2)c(=O)c1Cl [GW844520]?
inhibition at 0.1 µM (bovine cytochrome bc1): 59 ± 6%; inhibition at 1 µM (bovine cytochrome bc1): 79 ± 3%; IC50 [1]: 5 nM; IC50 [2]: 2 nM; IC50 [3, 8]: > 10000 nM; IC50 [4]: 2 nM

With COc1cc2[nH]c(C)c(-c3ccc(Oc4ccc(OC(F)(F)F)cc4)cc3)c(=O)c2cc1Cl [ELQ300] as the compound, how does the inhibition at 0.1 µM (bovine cytochrome bc1) read?
Its inhibition at 0.1 µM is 22 ± 5%.

What about the inhibition at 1 µM (bovine cytochrome bc1) of the same compound?
Its inhibition at 1 µM is 51 ± 7%.

And the IC50 [1]?
Its IC50 is 2.2 nM.

What about the IC50 [5] of the same compound?
The IC50 was 1.7 nM.

And the IC50 [4]?
Its IC50 is 0.56 nM.

And the aqueous solubility [6]?
The aqueous solubility was under 1 µM.

Which inhibition at 0.1 µM (bovine cytochrome bc1) does the source give for Cc1[nH]c2ccccc2c(=O)c1-c1ccc(Cc2ccc(OC(F)(F)F)cc2)cc1 [WDH-1U-4] here?
The inhibition at 0.1 µM was 7 ± 1%.

What about the inhibition at 1 µM (bovine cytochrome bc1) of the same compound?
The inhibition at 1 µM was 61 ± 3%.

What about the IC50 [1] of the same compound?
Its IC50 is 36 ± 6 nM.

What about the IC50 [5] of the same compound?
Its IC50 is 5 ± 2 nM.

And the IC50 [3]?
The IC50 was 492 nM.

And the IC50 [4]?
Its IC50 is under 10 nM.

What does the source list for Cc1c(-c2ccc(Cc3ccc(OC(F)(F)F)cc3)cc2)n(O)c2ccccc2c1=O [RKA066]?
inhibition at 0.1 µM (bovine cytochrome bc1): 81 ± 4%; inhibition at 1 µM (bovine cytochrome bc1): 93 ± 2%; IC50 [1]: 22 ± 0.4 nM; IC50 [5]: 217 ± 18 nM; IC50 (nM) (TM90C2B) [5]: triple-digit nanomolar; IC50 [3]: 55 nM; IC50 [4]: 28 nM

With COc1ccc2c(=O)c(C)c(-c3cncc(-c4ccc(OC(F)(F)F)cc4)c3)[nH]c2c1 [SCR0911] as the compound, how does the inhibition at 0.1 µM [7] read?
Its inhibition at 0.1 µM is 80%.

And the inhibition at 0.1 µM (bovine cytochrome bc1)?
The inhibition at 0.1 µM was 9 ± 2%.

And the inhibition at 1 µM (bovine cytochrome bc1)?
The inhibition at 1 µM was 72 ± 5%.

What about the IC50 [1] of the same compound?
Its IC50 is 12 ± 3 nM.

What about the IC50 [5] of the same compound?
The IC50 was 7.2 nM.

What about the IC50 [3, 8] of the same compound?
Its IC50 is over 1000 nM.

And the aqueous solubility [6]?
The aqueous solubility was 7.8 µM (≈ 3.33 µg/mL).

With Cc1[nH]c(CO)c(-c2ccc(Oc3ccc(OC(F)(F)F)cc3)cc2)c(=O)c1Cl [GSK932121] as the compound, how does the inhibition at 0.1 µM (bovine cytochrome bc1) read?
The inhibition at 0.1 µM was 65 ± 4%.

What about the inhibition at 1 µM (bovine cytochrome bc1) of the same compound?
The inhibition at 1 µM was 82 ± 5%.

What about the IC50 [1] of the same compound?
Its IC50 is 6 nM.

And the IC50 [2]?
Its IC50 is 6 nM.

And the IC50 [3, 8]?
Its IC50 is over 10000 nM.

And the IC50 [4]?
The IC50 was 7 nM.
